Refractive index data for nine compounds are collected here from the NIST ThermoML archive (doi:10.1016/j.fluid.2014.04.002).

Numbers after ± are expanded uncertainties.

A word on the refractive index: it is a measure of how strongly the sample bends light.

One data set in a line: refractive index (Na D-line) (dimensionless). The conditions noted are these: 303.15 K; 101.33 kPa; Liquid; Standard Abbe refractometry.
Turning to `OCCCO` [propan-1,3-diol], the refractive index is on record as 1.43667 ± 0.00051.

With `C1CCOC1` [tetrahydrofuran], the refractive index stood at 1.40203 ± 0.00037.

Staying with this data set, now noted: 308.15 K; 101.33 kPa; Liquid; Standard Abbe refractometry.
For the compound `CCOC(=O)C(C)O` (racemic) [DL-ethyl lactate], the refractive index was 1.4061 ± 0.00051.

Take `CC(O)CO` (centres undefined) [1,2-propanediol]: the refractive index is 1.42764 ± 0.00037.

Turning to `COCCOCCOCCOCCOC` [2,5,8,11,14-pentaoxapentadecane], the refractive index is 1.42697 ± 0.00037.

On to `OCCCO` [propan-1,3-diol], for which the refractive index came out at 1.43526 ± 0.00051.

Take `C1CCOC1` [tetrahydrofuran]: the refractive index is reported as 1.39931 ± 0.00037.

The data set is the same for the next values; noted with them: 313.15 K; 101.33 kPa; Liquid; Standard Abbe refractometry.
Consider `CCOC(=O)C(C)O` (racemic) [DL-ethyl lactate], for which the refractive index stood at 1.40374 ± 0.00051.

Turning to `CC(O)CO` (centres undefined) [1,2-propanediol], the refractive index came to 1.42591 ± 0.00037.

For `COCCOCCOCCOCCOC` [2,5,8,11,14-pentaoxapentadecane], the refractive index worked out at 1.42447 ± 0.00037.

For `OCCCO` [propan-1,3-diol], the refractive index came out at 1.43384 ± 0.00051.

For the compound `C1CCOC1` [tetrahydrofuran], the refractive index stood at 1.39659 ± 0.00037.

Staying with this data set, now noted: 318.15 K; 101.33 kPa; Liquid; Standard Abbe refractometry.
For `CCOC(=O)C(C)O` (racemic) [DL-ethyl lactate], the refractive index came out at 1.40136 ± 0.00051.

For `CC(O)CO` (centres undefined) [1,2-propanediol], the refractive index stood at 1.4242 ± 0.00037.

Regarding `COCCOCCOCCOCCOC` [2,5,8,11,14-pentaoxapentadecane], the refractive index is 1.42206 ± 0.00037.

As to `OCCCO` [propan-1,3-diol], the refractive index was determined as 1.43243 ± 0.00051.

Turning to `C1CCOC1` [tetrahydrofuran], the refractive index was 1.3938 ± 0.00037.

The same data set, now with this note: 323.15 K; 101.33 kPa; Liquid; Standard Abbe refractometry.
In the case of `CCOC(=O)C(C)O` (racemic) [DL-ethyl lactate], the refractive index is 1.39898 ± 0.00051.

For the compound `CC(O)CO` (centres undefined) [1,2-propanediol], the refractive index worked out at 1.42246 ± 0.00037.

Regarding `COCCOCCOCCOCCOC` [2,5,8,11,14-pentaoxapentadecane], the refractive index is 1.41985 ± 0.00037.

`OCCCO` [propan-1,3-diol]: the refractive index turned out to be 1.43101 ± 0.00051.

In the case of `C1CCOC1` [tetrahydrofuran], the refractive index was found to be 1.39098 ± 0.00037.

The nature of a further data set: refractive index (Na D-line) (dimensionless); xn = mol fraction of the nth substance listed. Conditions: 288.15 K; 101 kPa; Liquid; Standard Abbe refractometry; x1 = 1.
On to `CCOC(=O)C(C)O` (stereo not drawn) [DL-ethyl lactate] + COCCOCCOCCOCCOC, for which the refractive index is recorded as 1.41537 ± 0.00051.

Staying with this data set, now noted: 288.15 K; 101 kPa; Liquid; Standard Abbe refractometry; x2 = 0.
For `CC(O)CO` (centres undefined) [1,2-propanediol] + CCOC(=O)C(C)O, the refractive index was found to be 1.43437 ± 0.00037.

Take `OCCCO` [propan-1,3-diol] + CCOC(=O)C(C)O: the refractive index came out at 1.44091 ± 0.00051.

With `C1CCOC1` [tetrahydrofuran] + CCOC(=O)C(C)O, the refractive index was 1.41005 ± 0.00037.

Still in this data set, the particulars now being: 293.15 K; 101 kPa; Liquid; Standard Abbe refractometry; x1 = 1.
Regarding `CCOC(=O)C(C)O` (stereo not drawn) [DL-ethyl lactate] + COCCOCCOCCOCCOC, the refractive index is on record as 1.41307 ± 0.00051.

Staying with this data set, now noted: 293.15 K; 101 kPa; Liquid; Standard Abbe refractometry; x2 = 0.
Regarding `CC(O)CO` (centres undefined) [1,2-propanediol] + CCOC(=O)C(C)O, the refractive index was determined as 1.4327 ± 0.00037.

In the case of `OCCCO` [propan-1,3-diol] + CCOC(=O)C(C)O, the refractive index came out at 1.43949 ± 0.00051.

Take `C1CCOC1` [tetrahydrofuran] + CCOC(=O)C(C)O: the refractive index turned out to be 1.40737 ± 0.00037.

Still in this data set, the particulars now being: 298.15 K; 101 kPa; Liquid; Standard Abbe refractometry; x1 = 1.
`CCOC(=O)C(C)O` (stereo not drawn) [DL-ethyl lactate] + COCCOCCOCCOCCOC: the refractive index is 1.41076 ± 0.00051.

The data set is the same for the next values; noted with them: 298.15 K; 101 kPa; Liquid; Standard Abbe refractometry; x2 = 0.
Regarding `CC(O)CO` (centres undefined) [1,2-propanediol] + CCOC(=O)C(C)O, the refractive index is 1.43102 ± 0.00037.

On to `OCCCO` [propan-1,3-diol] + CCOC(=O)C(C)O, for which the refractive index is listed as 1.43808 ± 0.00051.

On to `C1CCOC1` [tetrahydrofuran] + CCOC(=O)C(C)O, for which the refractive index came to 1.40472 ± 0.00037.

Still in this data set, the particulars now being: 303.15 K; 101 kPa; Liquid; Standard Abbe refractometry; x1 = 1.
Regarding `CCOC(=O)C(C)O` (stereo not drawn) [DL-ethyl lactate] + COCCOCCOCCOCCOC, the refractive index is 1.40843 ± 0.00051.

Staying with this data set, now noted: 303.15 K; 101 kPa; Liquid; Standard Abbe refractometry; x2 = 0.
Take `CC(O)CO` (centres undefined) [1,2-propanediol] + CCOC(=O)C(C)O: the refractive index worked out at 1.42934 ± 0.00037.

Consider `OCCCO` [propan-1,3-diol] + CCOC(=O)C(C)O, for which the refractive index is 1.43667 ± 0.00051.

Regarding `C1CCOC1` [tetrahydrofuran] + CCOC(=O)C(C)O, the refractive index is listed as 1.40203 ± 0.00037.

The data set is the same for the next values; noted with them: 308.15 K; 101 kPa; Liquid; Standard Abbe refractometry; x1 = 1.
As to `CCOC(=O)C(C)O` (stereo not drawn) [DL-ethyl lactate] + COCCOCCOCCOCCOC, the refractive index was 1.4061 ± 0.00051.

The same data set, now with this note: 308.15 K; 101 kPa; Liquid; Standard Abbe refractometry; x2 = 0.
As for `CC(O)CO` (centres undefined) [1,2-propanediol] + CCOC(=O)C(C)O, the refractive index is recorded as 1.42764 ± 0.00037.

Turning to `OCCCO` [propan-1,3-diol] + CCOC(=O)C(C)O, the refractive index came out at 1.43526 ± 0.00051.

As for `C1CCOC1` [tetrahydrofuran] + CCOC(=O)C(C)O, the refractive index is listed as 1.39931 ± 0.00037.

The data set is the same for the next values; noted with them: 313.15 K; 101 kPa; Liquid; Standard Abbe refractometry; x1 = 1.
For `CCOC(=O)C(C)O` (stereo not drawn) [DL-ethyl lactate] + COCCOCCOCCOCCOC, the refractive index is reported as 1.40374 ± 0.00051.

Still in this data set, the particulars now being: 313.15 K; 101 kPa; Liquid; Standard Abbe refractometry; x2 = 0.
In the case of `CC(O)CO` (centres undefined) [1,2-propanediol] + CCOC(=O)C(C)O, the refractive index came to 1.42591 ± 0.00037.

In the case of `OCCCO` [propan-1,3-diol] + CCOC(=O)C(C)O, the refractive index came to 1.43384 ± 0.00051.

For the compound `C1CCOC1` [tetrahydrofuran] + CCOC(=O)C(C)O, the refractive index is 1.39659 ± 0.00037.

Staying with this data set, now noted: 318.15 K; 101 kPa; Liquid; Standard Abbe refractometry; x1 = 1.
On to `CCOC(=O)C(C)O` (stereo not drawn) [DL-ethyl lactate] + COCCOCCOCCOCCOC, for which the refractive index turned out to be 1.40136 ± 0.00051.

The same data set, now with this note: 318.15 K; 101 kPa; Liquid; Standard Abbe refractometry; x2 = 0.
In the case of `CC(O)CO` (centres undefined) [1,2-propanediol] + CCOC(=O)C(C)O, the refractive index turned out to be 1.4242 ± 0.00037.

Consider `OCCCO` [propan-1,3-diol] + CCOC(=O)C(C)O, for which the refractive index is reported as 1.43243 ± 0.00051.

Regarding `C1CCOC1` [tetrahydrofuran] + CCOC(=O)C(C)O, the refractive index is 1.3938 ± 0.00037.

The same data set, now with this note: 323.15 K; 101 kPa; Liquid; Standard Abbe refractometry; x1 = 1.
For `CCOC(=O)C(C)O` (stereo not drawn) [DL-ethyl lactate] + COCCOCCOCCOCCOC, the refractive index was determined as 1.39898 ± 0.00051.

Staying with this data set, now noted: 323.15 K; 101 kPa; Liquid; Standard Abbe refractometry; x2 = 0.
Regarding `CC(O)CO` (centres undefined) [1,2-propanediol] + CCOC(=O)C(C)O, the refractive index worked out at 1.42246 ± 0.00037.

As for `OCCCO` [propan-1,3-diol] + CCOC(=O)C(C)O, the refractive index turned out to be 1.43101 ± 0.00051.

For the compound `C1CCOC1` [tetrahydrofuran] + CCOC(=O)C(C)O, the refractive index came to 1.39098 ± 0.00037.
